The nature of the series: excess molar enthalpy (molar enthalpy of mixing); xn = mol fraction of the nth substance listed. Particulars: 101.33 kPa, Gas, Flow calorimetry, x1 = 0.5.

For 2 molecules, excess molar enthalpy results are on record in the NIST ThermoML archive (doi:10.1016/j.jct.2008.12.009).

± gives the expanded uncertainty stated by the source.

On to `O=O` [oxygen] + O, for which the excess molar enthalpy runs as follows: (373.15 K) 0.0132 ± 0.000406 kcal/mol; (383.15 K) 0.0115 ± 0.000382 kcal/mol; (393.15 K) 0.0103 ± 0.000382 kcal/mol; (403.15 K) 0.00908 ± 0.000382 kcal/mol; (413.15 K) 0.00822 ± 0.000382 kcal/mol; (423.15 K) 0.00741 ± 0.000382 kcal/mol. Also, the excess molar enthalpy worked out at 0.00679 ± 0.000359 kcal/mol (433.15 K); 0.00619 ± 0.000359 kcal/mol (443.15 K); 0.00564 ± 0.000359 kcal/mol (453.15 K); 0.00516 ± 0.000359 kcal/mol (463.15 K); 0.00483 ± 0.000359 kcal/mol (473.15 K); 0.00449 ± 0.000359 kcal/mol (483.15 K). For the same molecule, the excess molar enthalpy (493.15 K) turned out to be 0.00413 ± 0.000359 kcal/mol.
With `N#N` [nitrogen] + O, the excess molar enthalpy came to 0.0129 ± 0.000382 kcal/mol (373.15 K); 0.0113 ± 0.000359 kcal/mol (383.15 K); 0.0101 ± 0.000359 kcal/mol (393.15 K); 0.00891 ± 0.000359 kcal/mol (403.15 K); 0.00803 ± 0.000359 kcal/mol (413.15 K); 0.00722 ± 0.000335 kcal/mol (423.15 K). The excess molar enthalpy is 0.00664 ± 0.000335 kcal/mol (433.15 K); 0.006 ± 0.000335 kcal/mol (443.15 K); 0.00547 ± 0.000335 kcal/mol (453.15 K); 0.00504 ± 0.000335 kcal/mol (463.15 K); 0.00471 ± 0.000335 kcal/mol (473.15 K); 0.0043 ± 0.000335 kcal/mol (483.15 K). The excess molar enthalpy (493.15 K) is 0.00402 ± 0.000335 kcal/mol.
